Data: patent publication US20100209345A1, “Fluorinated Ligands for Targeting Peripheral Benzodiazepine Receptors” (Australian Nuclear Science & Technology Organisation, priority 2006, published 2010)
Values joined by “and” are separate entries in the source; they are usually repeats but may differ in a detail not shown here. Identical values can stand only once.

Legend:
[1] = Biodistribution of 18F-labelled tracers in rats; type: in vivo; settings: SD rats; for Biodistribution: Adrenals / Biodistribution: Bladder / Biodistribution: Blood / Biodistribution: Bone / Biodistribution: Brain / Biodistribution: GIT / Biodistribution: Heart / Biodistribution: Kidney / Biodistribution: Liver / Biodistribution: Lungs / Biodistribution: Muscle / Biodistribution: Olfactory bulbs / Biodistribution: Pancreas / Biodistribution: Skin / Biodistribution: Spleen / Biodistribution: Stomach / Biodistribution: Testes / Biodistribution: Thymus / Biodistribution: Thyroid: decay correction not stated
Description: [^18F]Fluoride, in the form of H^18F, was produced by the ^18O(p,n)^18F nuclear reaction by bombardment of ^18O-enriched water target. The aqueous [^18F]fluoride solution was added to a 2.5-mL wheaton vial containing dry acetonitrile (1 mL), Kryptofix 2.2.2 (5 mg, 13.3 μmol) and potassium carbonate (2 mg, 14.5 μmol). The solvent was evaporated under a stream of nitrogen at 90° C. with a reducing vacuum. This azeotropic drying was repeated twice by further addition of acetonitrile (2×1 mL). The tosylate precursor 2-(2-(4-(2-tosylethoxy)phenyl)-6-chloroimidazo[1,2-a]pyridin-3-yl)-N,N-diethylacetamide (2 mg, 3.6 μmol) was dissolved in acetonitrile (1 ml) and added to the dried K222.K2CO3.KF complex. Stirring and heating at 90° C. continued for 10 to 15 mins before the reaction mixture was diluted with mobile phase and purified by reverse phase HPLC on an Alltech Alltima, C18, 10μ, 250×22 mm column eluting at 10 mLs/min with 45% acetonitrile, 55% water with 0.1% TFA.
The biodistribution of PBR132* was undertaken in SD rats and analysis up to 4 h p.i. in the brain and peripheral tissues was performed. The specificity and selectivity of the tracer were assessed by pre-treatment with PBR and Central benzodiazepine receptor (CBR) specific ligands (1 mg/kg) 5 min prior to injection of PBR132*.
The biodistribution of PBR 147* was performed in SD rats and brain and peripheral tissues were analysised at 15, 30 min, 1, and 4 h p.i. The specificity and selectivity of the tracer was assessed by pre-treatment of the animals with the PBR ligands PK11195 and Ro 5-4864 and with Flumazenil for CBR at 1 mg/kg 5 min prior to injection of PBR 147*
The biodistribution of PBR102* and PBR111* were performed in SD rats and brain and peripheral tissues analysed at 15, 30 min, 1, and 4 h p.i. The specificity and selectivity of the tracers were assessed by pre-treatment with the PBR ligands PK11195 and Ro 5-4864 and with Flumazenil for CBR at 1 mg/kg 5 min prior to injection of the corresponding tracers.
The specificity and selectivity of the tracers were assessed by pre-treatment with the PBR ligands PK11195 and Ro 5-4864 and with Flumazenil for CBR at 1 mg/kg 5 min prior to injection of the corresponding tracers.

[2] = target: central benzodiazepine receptors; assay: In vitro binding, [3H]-Flumazenil, brain cortex membrane preparation; settings: [3H]-Flumazenil (2 nM), 25° C., 45 min, read-out: CBR IC50
Description: Non-specific binding was determined with Flumazenil (20 μM). In both cases, incubations were terminated by rapid filtration through Whatman GF/B glass fibre. Filters were immediately washed 3 times with 5 mL ice-cold 50 mM Tris/HCl at pH 7.4. Filters were counted in a β-scintillation counter (Packard) to measure the amount of bound radioactivity. The IC50 of the compounds for the peripheral benzodiazepine binding site and the central benzodiazepine receptor were calculated using Kell 6 software.

CCN(CC)C(=O)Cc1c(-c2ccc(OCCF)cc2)nn2c(C)cc(C)nc12 [PBR099, 2-(2-(4-(2-fluoroethoxy)phenyl)-5,7-dimethylpyrazolo[1,5-a]pyrimidin-3-yl)-N,N-diethylacetamide]
Biodistribution: Adrenals ([1]; 15 min): 5.64 ± 0.53 % ID/g | Biodistribution: Bladder ([1]; 15 min): 0.46 ± 0.18 % ID/g | Biodistribution: Blood ([1]; 15 min): 0.23 ± 0.03 % ID/g | Biodistribution: Bone ([1]; 15 min): 0.64 ± 0.03 % ID/g | Biodistribution: Brain ([1]; 15 min): 0.21 ± 0.01 % ID/g | Biodistribution: GIT ([1]; 15 min): 0.83 ± 0.09 % ID/g | Biodistribution: Heart ([1]; 15 min): 5.86 ± 0.44 % ID/g | Biodistribution: Kidney ([1]; 15 min): 3.9 % ID/g and 3.85 ± 0.24 % ID/g | Biodistribution: Liver ([1]; 15 min): 0.63 ± 0.06 % ID/g | Biodistribution: Lungs ([1]; 15 min): 14.55 ± 1.35 % ID/g | Biodistribution: Muscle ([1]; 15 min): 0.65 ± 0.14 % ID/g | Biodistribution: Olfactory bulbs ([1]; 15 min): 0.35 % ID/g and 0.35 ± 0.03 % ID/g | Biodistribution: Pancreas ([1]; 15 min): 1.70 ± 0.13 % ID/g | Biodistribution: Skin ([1]; 15 min): 0.35 ± 0.04 % ID/g | Biodistribution: Spleen ([1]; 15 min): 4.60 ± 0.29 % ID/g | Biodistribution: Stomach ([1]; 15 min): 0.45 ± 0.18 % ID/g | Biodistribution: Testes ([1]; 15 min): 0.184 ± 0.006 % ID/g | Biodistribution: Thymus ([1]; 15 min): 0.62 ± 0.17 % ID/g | Biodistribution: Thyroid ([1]; 15 min): 6.94 ± 1.04 % ID/g | Biodistribution: Adrenals ([1]; 30 min): 6.6 % ID/g and 6.56 ± 1.20 % ID/g | Biodistribution: Bladder ([1]; 30 min): 0.42 ± 0.08 % ID/g | Biodistribution: Blood ([1]; 30 min): 0.16 ± 0.01 % ID/g | Biodistribution: Bone ([1]; 30 min): 0.70 ± 0.02 % ID/g | Biodistribution: Brain ([1]; 30 min): 0.14 ± 0.01 % ID/g | Biodistribution: GIT ([1]; 30 min): 0.90 ± 0.03 % ID/g | Biodistribution: Heart ([1]; 30 min): 5.59 ± 0.26 % ID/g | Biodistribution: Kidney ([1]; 30 min): 3.62 ± 0.53 % ID/g | Biodistribution: Liver ([1]; 30 min): 0.54 ± 0.18 % ID/g | Biodistribution: Lungs ([1]; 30 min): 8.82 ± 0.53 % ID/g | Biodistribution: Muscle ([1]; 30 min): 0.55 ± 0.03 % ID/g | Biodistribution: Olfactory bulbs ([1]; 30 min): 0.28 ± 0.03 % ID/g | Biodistribution: Pancreas ([1]; 30 min): 1.33 ± 0.16 % ID/g | Biodistribution: Skin ([1]; 30 min): 0.49 ± 0.02 % ID/g | Biodistribution: Spleen ([1]; 30 min): 4.71 ± 0.61 % ID/g | Biodistribution: Stomach ([1]; 30 min): 0.32 ± 0.04 % ID/g | Biodistribution: Testes ([1]; 30 min): 0.209 ± 0.007 % ID/g | Biodistribution: Thymus ([1]; 30 min): 0.66 ± 0.14 % ID/g | Biodistribution: Thyroid ([1]; 30 min): 7.99 ± 1.83 % ID/g | Biodistribution: Adrenals ([1]; 60 min): 7.82 ± 1.73 % ID/g | Biodistribution: Bladder ([1]; 60 min): 0.72 ± 0.17 % ID/g | Biodistribution: Blood ([1]; 60 min): 0.14 ± 0.01 % ID/g | Biodistribution: Bone ([1]; 60 min): 0.79 ± 0.03 % ID/g | Biodistribution: Brain ([1]; 60 min): 0.13 ± 0.02 % ID/g | Biodistribution: GIT ([1]; 60 min): 1.31 ± 0.08 % ID/g | Biodistribution: Heart ([1]; 60 min): 6.45 ± 0.43 % ID/g | Biodistribution: Kidney ([1]; 60 min): 3.53 ± 0.24 % ID/g | Biodistribution: Liver ([1]; 60 min): 0.40 ± 0.05 % ID/g | Biodistribution: Lungs ([1]; 60 min): 5.66 ± 0.56 % ID/g | Biodistribution: Muscle ([1]; 60 min): 0.43 ± 0.02 % ID/g | Biodistribution: Olfactory bulbs ([1]; 60 min): 0.29 ± 0.03 % ID/g | Biodistribution: Pancreas ([1]; 60 min): 1.08 ± 0.19 % ID/g | Biodistribution: Skin ([1]; 60 min): 0.48 ± 0.04 % ID/g | Biodistribution: Spleen ([1]; 60 min): 4.51 ± 0.70 % ID/g | Biodistribution: Stomach ([1]; 60 min): 0.41 ± 0.09 % ID/g | Biodistribution: Testes ([1]; 60 min): 0.266 ± 0.019 % ID/g | Biodistribution: Thymus ([1]; 60 min): 0.77 ± 0.12 % ID/g | Biodistribution: Thyroid ([1]; 60 min): 9.90 ± 3.67 % ID/g | Biodistribution: Bladder ([1]; 4 hours): 0.80 ± 0.11 % ID/g | Biodistribution: Blood ([1]; 4 hours): 0.16 ± 0.01 % ID/g | Biodistribution: Bone ([1]; 4 hours): 1.0 % ID/g and 1.07 ± 0.05 % ID/g | Biodistribution: Brain ([1]; 4 hours): 0.15 ± 0.01 % ID/g | Biodistribution: GIT ([1]; 4 hours): 1.90 ± 0.09 % ID/g | Biodistribution: Heart ([1]; 4 hours): 4.29 ± 0.86 % ID/g | Biodistribution: Kidney ([1]; 4 hours): 2.4 % ID/g and 2.41 ± 0.40 % ID/g | Biodistribution: Liver ([1]; 4 hours): 0.29 ± 0.04 % ID/g | Biodistribution: Lungs ([1]; 4 hours): 2.80 ± 0.51 % ID/g | Biodistribution: Muscle ([1]; 4 hours): 0.30 ± 0.05 % ID/g | Biodistribution: Olfactory bulbs ([1]; 4 hours): 0.31 % ID/g and 0.31 ± 0.05 % ID/g | Biodistribution: Pancreas ([1]; 4 hours): 0.56 ± 0.09 % ID/g | Biodistribution: Skin ([1]; 4 hours): 0.65 ± 0.05 % ID/g | Biodistribution: Spleen ([1]; 4 hours): 2.88 ± 0.56 % ID/g | Biodistribution: Stomach ([1]; 4 hours): 0.79 ± 0.16 % ID/g | Biodistribution: Testes ([1]; 4 hours): 0.349 ± 0.011 % ID/g | Biodistribution: Thymus ([1]; 4 hours): 0.91 ± 0.05 % ID/g | Biodistribution: Thyroid ([1]; 4 hours): 7.97 ± 1.37 % ID/g | Blood activity level / concentration in the blood over the 4 h study period ([1]; throughout 15 min to 4 h): 0.23% | IC50 [2]: > 5 µM | chromatographic logP (LogP HPLC): 2.54 ± 0.08
